{"source": "patent US7083969B2", "about": "“Serratia marcescens strain” (Korea Research Institute of Bioscience and Biotechnology, priority 1997, dated 2006)", "key": {"CD8 T lymphocytes": {"test_system": "CD8 T lymphocytes", "test": "Immunosuppressive activity on CD8 T lymphocytes", "format": "cell-based"}, "[1]": {"test_system": "CD8 T cell (cytotoxic T cell)", "test": "Selective cytotoxicity: proportion of CD8 T cells after treatment", "format": "cell-based, mice", "conditions": "proportion of the cells", "excerpt": "(§1) Germ-free test animals, mice BDF1 and B6C3F1, obtained from Genetic Resources Center, Korean Research Institute of Bioscience and Biotechnology in the Korean Institute of Science and Technology, were used for the assay of the immunosuppressive activity of prodigiosin. […] At such concentrations as show no cytotoxic effects, prodigiosin cannot suppress the immune response of B lymphocytes. […] This selective immunosuppression for T lymphocytes is not ascribed to the selective cytotoxicity for T lymphocytes. The same immunosuppression results as in the ex vivo experiments were obtained in in vivo experiments. When T lymphocyte activity was measured by use of a graft versus host reaction and a T cell-dependent antibody producing reaction, the prodigiosin suppressed the immune response, but exerted no toxicity on animals. Therefore, the immunosuppressive activity of the prodigiosin is thought to be attributed to the selective suppression for T lymphocyte activity.\n(§2) Whether the selective immunosuppression of prodigiosin for T cells is attributed to the selective cytotoxicity for T cells or not was assayed by measuring the proportion of the cells. On the third day after treatment of the immune cells with prodigiosin, the number of the cells was counted. Because T lymphocytes consist of CD4 T cell (helper T cell) and CD8 T cell (cytotoxic T cell), the proportion of T and B lymphocytes was calculated in this Example."}, "B lymphocytes": {"test_system": "B lymphocytes", "test": "Selective cytotoxicity: proportion of B lymphocytes after treatment", "format": "cell-based, mice", "conditions": "for Proliferation (%) B cell: proportion of the cells", "excerpt": "as §1, §2"}, "[2]": {"test_system": "Immune cells separated from the spleens", "test": "Viability of spleen immune cells cultured in vitro (cytotoxicity)", "format": "cell-based, mice", "conditions": "ex vivo experiments", "excerpt": "as §1\n(§3) Immune cells were separated from the spleens of the germ-free animals and cultured in vitro. The cultures were treated with the prodigiosin at various amounts from 3 nM to 30,000 nM and the viability of the cells were measured from the first day to the third day after the treatment. Based on the initial viability of the immune cells, the viabilities of the test groups were calculated. […] So, subsequent experiments for immunoactivity were carried out at not more than 100 nM in order to exclude the cytotoxicity and to measure only the immunosuppressive effect of the prodigiosin."}, "[3]": {"test": "Viability of spleen immune cells cultured in vitro (cytotoxicity)", "format": "cell-based, mice", "conditions": "mouse, immune cells separated from the spleen, cultured in vitro", "excerpt": "as §1, §3"}, "CD4 T lymphocytes": {"test_system": "CD4 T lymphocytes", "test": "Immunosuppressive activity on CD4 T lymphocytes", "format": "cell-based"}, "B and T lymphocytes": {"test_system": "B and T lymphocytes", "test": "T-cell dependent antibody producing reaction in vitro (sheep red blood cells)", "format": "cell-based, mice", "excerpt": "as §1\nThe influence of prodigiosin on the functions of lymphocytes was measured using three reaction systems. First, the ability of B lymphocyte to proliferate in response to lipopolysaccharide stimulus was assessed. For this, on the third day after stimulation with lipopolysaccharide, the antibody production of the B lymphocyte was measured. When B lymphocytes are stimulated with lipopolysaccharide, they can produce antibodies without the aid of T lymphocyte. Second, a mixed lymphocyte reaction was induced in order to assess the effect on T-cell response. The reaction needs no aids from the B lymphocyte. On the third day after two types of heteroimmune cells, which are different from each other in histocompatibility antigen, were mixed to stimulate the activity of T lymphocytes, the T-cell response-was assessed. Third, the T-cell dependent antibody producing reaction was utilized to assess the effect of prodigiosin on the simultaneous immune response of both of the B and T lymphocytes. This reaction requires the functions of B and T lymphocytes, simultaneously. On the fifth day after immunization of the lymphocytes with the red blood cells of sheep, their antibody production ability was assessed.\nIn Table 3, the values are relative to the immune response of the lymphocytes untreated with prodigiosin."}, "B lymphocyte": {"test_system": "B lymphocyte", "test": "Lipopolysaccharide-induced B lymphocyte proliferation (DNA synthesis)", "format": "cell-based, mice", "conditions": "for Proliferation (%) B cell: three days", "excerpt": "as §1\nThree standard substances which induce lymphocytes to proliferate were employed to measure the effect of the prodigiosin on proliferation of lymphocytes. 5 μg/ml of lipopolysaccharide were used to induce B lymphocyte to proliferate, 5 μg/ml of Concanavalin A for T lymphocyte and 5 μg/ml of Pokeweed mitogen for B and T lymphocytes, both. Prodigiosin was added, together with the proliferation-inducing substance. Three days after the addition, the proliferation effect was monitored by measuring the amount of DNA synthesized. In order to exclude the cytotoxicity of prodigiosin, it was used at a concentration of not more than 100 nM. In Table 2, the proliferation percentages mean the proliferated amounts of prodigiosin-treated lymphocytes relative to that of an non-treated group. As shown, the suppression percentage effected by prodigiosin in amounts of 30–100 nM reaches up to 96–98% for the T lymphocyte induced by concanavalin A while the proliferation of B lymphocyte induced by lipopolysaccharide and the proliferation of B/T lymphocytes induced by pokeweed mitogen are suppressed to the extent of 13–19% and 45–83%, respectively."}, "[4]": {"conditions": "3 nM, third day after treatment"}}}
{"smiles": "CCCCCC1=C/C(=C/c2[nH]c(-c3ccc[nH]3)cc2OC)N=C1C", "note": "[Prodigiosin, prodigiosin]", "values": [{"measurement": "immunosuppressive activity on CD8 T lymphocytes", "setting": "CD8 T lymphocytes", "value": "has an immunosuppressive activity"}, {"measurement": "Proliferation (%) CD8 T cell", "setting": "[1]; [4]", "value": 13, "unit": "%"}, {"measurement": "Proliferation (%) CD8 T cell", "setting": "[1]; 10 nM, third day", "value": 13, "unit": "%"}, {"measurement": "Proliferation (%) CD8 T cell", "setting": "[1]; 30 nM, third day", "value": 12, "unit": "%"}, {"measurement": "Proliferation (%) CD8 T cell", "setting": "[1]; 100 nM, third day", "value": 10, "unit": "%"}, {"measurement": "Proliferation (%) B cell", "setting": "B lymphocytes; [4]", "value": 47, "unit": "%"}, {"measurement": "Proliferation (%) B cell", "setting": "B lymphocytes; 10 nM, third day", "value": 49, "unit": "%"}, {"measurement": "Proliferation (%) B cell", "setting": "B lymphocytes; 30 nM, third day", "value": 50, "unit": "%"}, {"measurement": "Proliferation (%) B cell", "setting": "B lymphocytes; 100 nM, third day", "value": 52, "unit": "%"}, {"measurement": "selective cytotoxicity for B, CD4 T and CD8 T lymphocytes", "setting": "B lymphocytes; B, CD4 T and CD8 T cell proportions, 3-100 nM, third day", "value": "no selective cytotoxicity"}, {"measurement": "concentration with no cytotoxic effects", "setting": "[2]", "value": "less than 100 nM"}, {"measurement": "viability at 1 day, 0.003 µM", "setting": "[3]; 3 nM, 1st day after treatment, based on initial viability", "value": 96, "unit": "%"}, {"measurement": "viability at 2 day, 0.003 µM", "setting": "[3]; 3 nM, 2nd day after treatment, based on initial viability", "value": 86, "unit": "%"}, {"measurement": "viability at 3 day, 0.003 µM", "setting": "[3]; 3 nM, 3rd day after treatment, based on initial viability", "value": 79, "unit": "%"}, {"measurement": "viability at 1 day, 0.01 µM", "setting": "[3]; 10 nM, 1st day", "value": 89, "unit": "%"}, {"measurement": "viability at 2 day, 0.01 µM", "setting": "[3]; 10 nM, 2nd day", "value": 82, "unit": "%"}, {"measurement": "viability at 3 day, 0.01 µM", "setting": "[3]; 10 nM, 3rd day", "value": 79, "unit": "%"}, {"measurement": "viability at 1 day, 0.03 µM", "setting": "[3]; 30 nM, 1st day", "value": 89, "unit": "%"}, {"measurement": "viability at 2 day, 0.03 µM", "setting": "[3]; 30 nM, 2nd day", "value": 70, "unit": "%"}, {"measurement": "viability at 3 day, 0.03 µM", "setting": "[3]; 30 nM, 3rd day", "value": 81, "unit": "%"}, {"measurement": "viability at 1 day, 0.1 µM", "setting": "[3]; 100 nM, 1st day", "value": 82, "unit": "%"}, {"measurement": "viability at 2 day, 0.1 µM", "setting": "[3]; 100 nM, 2nd day", "value": 70, "unit": "%"}, {"measurement": "viability at 3 day, 0.1 µM", "setting": "[3]; 100 nM, 3rd day", "value": 70, "unit": "%"}, {"measurement": "viability at 1 day, 0.3 µM", "setting": "[3]; 300 nM, 1st day", "value": 68, "unit": "%"}, {"measurement": "viability at 2 day, 0.3 µM", "setting": "[3]; 300 nM, 2nd day", "value": 14, "unit": "%"}, {"measurement": "viability at 3 day, 0.3 µM", "setting": "[3]; 300 nM, 3rd day", "value": 18, "unit": "%"}, {"measurement": "viability at 1 day, 1000 nM", "setting": "[3]; 1,000 nM, 1st day", "value": 74, "unit": "%"}, {"measurement": "viability at 2 day, 1000 nM", "setting": "[3]; 1,000 nM, 2nd day", "value": 14, "unit": "%"}, {"measurement": "viability at 3 day, 1000 nM", "setting": "[3]; 1,000 nM, 3rd day", "value": 14, "unit": "%"}, {"measurement": "viability at 1 day, 3000 nM", "setting": "[3]; 3,000 nM, 1st day", "value": 61, "unit": "%"}, {"measurement": "viability at 2 day, 3000 nM", "setting": "[3]; 3,000 nM, 2nd day", "value": 9, "unit": "%"}, {"measurement": "viability at 3 day, 3000 nM", "setting": "[3]; 3,000 nM, 3rd day", "value": 8, "unit": "%"}, {"measurement": "viability at 1 day, 10000 nM", "setting": "[3]; 10,000 nM, 1st day", "value": 32, "unit": "%"}, {"measurement": "viability at 2 day, 10000 nM", "setting": "[3]; 10,000 nM, 2nd day", "value": 4, "unit": "%"}, {"measurement": "viability at 3 day, 10000 nM", "setting": "[3]; 10,000 nM, 3rd day", "value": 4, "unit": "%"}, {"measurement": "viability at 1 day, 30000 nM", "setting": "[3]; 30,000 nM, 1st day", "value": 4, "unit": "%"}, {"measurement": "viability at 2 day, 30000 nM", "setting": "[3]; 30,000 nM, 2nd day", "value": 4, "unit": "%"}, {"measurement": "viability at 3 day, 30000 nM", "setting": "[3]; 30,000 nM, 3rd day", "value": 4, "unit": "%"}, {"measurement": "immunosuppressive activity on CD4 T lymphocytes", "setting": "CD4 T lymphocytes", "value": "has an immunosuppressive activity"}, {"measurement": "Immune Response (%) B/T cells", "setting": "B and T lymphocytes; 3 nM, antibody production, fifth day after sheep red blood cells, relative to untreated lymphocytes", "value": 81, "unit": "%"}, {"measurement": "Immune Response (%) B/T cells", "setting": "B and T lymphocytes; 10 nM, fifth day", "value": 74, "unit": "%"}, {"measurement": "Immune Response (%) B/T cells", "setting": "B and T lymphocytes; 30 nM, fifth day", "value": 64, "unit": "%"}, {"measurement": "Immune Response (%) B/T cells", "setting": "B and T lymphocytes; 100 nM, fifth day", "value": 34, "unit": "%"}, {"measurement": "Proliferation (%) B cell", "setting": "B lymphocyte; 3 nM, 5 μg/ml lipopolysaccharide, relative to non-treated group", "value": 101, "unit": "%"}, {"measurement": "Proliferation (%) B cell", "setting": "B lymphocyte; 10 nM, lipopolysaccharide", "value": 105, "unit": "%"}, {"measurement": "Proliferation (%) B cell", "setting": "B lymphocyte; 30 nM, lipopolysaccharide", "value": 87, "unit": "%"}, {"measurement": "Proliferation (%) B cell", "setting": "B lymphocyte; 100 nM, lipopolysaccharide", "value": 81, "unit": "%"}, {"measurement": "suppression of proliferation of B lymphocyte induced by lipopolysaccharide", "setting": "B lymphocyte; 30–100 nM", "value": "13–19%"}, {"measurement": "effect on proliferation of B lymphocytes", "setting": "B lymphocyte; non-cytotoxic concentrations", "value": "no influence"}]}
